Data published in patent EP0360937B1, “Improved process for recovering microbially produced interferonbeta” (CETUS ONCOLOGY CORPORATION, priority 1988, dated 1990).

Legend:
[1] = target: T1, IFN-beta (Homo sapiens, UniProt P01574, C38S); assay: Keeping IFN-beta soluble as guanidine HCl is removed by dialysis; supernatant and pellet analysed by SDS-PAGE and silver stain; assay type: physicochemical; design: key to Successful (+)/ Unsuccessful (-): Successful (+); Unsuccessful (-); details: for Successful (+)/ Unsuccessful (-): dialysis against sodium phosphate buffer pH 5.0; for keeping IFN-beta in solution: 15% PEG300, 25% glycerol, 50% sucrose, 20% isopropanol
T1 construct: made in house; host or cells: E. coli K12/MM294-1 carrying plasmid pSY2501 (ATCC 39,517)
T1 sequence (P01574 23-187 C38S limits assumed): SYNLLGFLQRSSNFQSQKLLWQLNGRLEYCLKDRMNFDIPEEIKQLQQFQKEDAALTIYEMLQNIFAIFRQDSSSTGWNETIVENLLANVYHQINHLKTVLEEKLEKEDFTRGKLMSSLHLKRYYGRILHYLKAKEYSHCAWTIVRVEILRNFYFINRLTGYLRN
Procedure: At this point, a stabilizing additive was added to the oxidized IFN-beta material while guanidine HCl is still present, and the solution was dialyzed to remove the guanidine. The solubilized, oxidized material was divided into aliquots and a different stabilizing agent or a non-ionic detergent was added to each aliquot. A summary of the stabilizing agents and non-ionic detergents used in this example, as well as the concentration used, is provided in Table 1.
Each aliquot was dialyzed against 20-50 mM sodium phosphate buffer, pH 5.0 containing the appropriate stabilizer or detergent. […] Dialysis was run at pH 5.0 because rIFN-beta is more soluble at low pH than at neutral or higher pH. As the guanidine HCl was dialyzed from the sample, a precipitate formed. The aliquots were centrifuged at 5,000 x g for 15 min and both the supernatant and the pellet, resuspended in 1% SDS, were saved. The supernatant and resuspended pellet were analyzed by SDS-PAGE (PHAST system by Pharmacia) and silver stain to locate the rIFN-beta.

[2] = target: T1, IFN-beta; assay: Absorbance at 280 nm in supernatant after dialysis against glycerol, with varied concentration and pH; assay type: physicochemical; details: for % A₂₈₀ in Supernatant: 25 mM NaPi

Tween® 80
keeping IFN-beta in solution, detergent combined with glycerol ([1]; 0.01% detergent with 25% glycerol at pH 4, A280 and SDS-PAGE): keep most of the IFN-beta in solution

OCC(O)COc1ccccc1 (centres unmarked) [3-phenoxy-1,2-propanediol]
Successful (+)/ Unsuccessful (-) ([1]; reagent at 5%): -

CCC(O)CO (centres unmarked) [1,2-butanediol]
Successful (+)/ Unsuccessful (-) ([1]; reagent at 20%): -

CC(O)CO (centres unmarked) [Propylene Glycol]
Successful (+)/ Unsuccessful (-) ([1]; reagent at 20%): -

OCC(O)CO [Glycerol]
keeping IFN-beta in solution [1]: keep IFN-beta in solution | % A₂₈₀ in Supernatant ([2]; 25%, pH 4): 31% | % A₂₈₀ in Supernatant ([2]; 25%, pH 5): 13% | % A₂₈₀ in Supernatant ([2]; 50%, pH 4): 86% | % A₂₈₀ in Supernatant ([2]; 50%, pH 5): 50% | IFN-beta solubility on adjusting concentration and pH ([2]; concentration increased to 50% and pH lowered to 4): greater IFN-beta solubility

OC[C@H]1O[C@@](CO)(O[C@H]2O[C@H](CO)[C@@H](O)[C@H](O)[C@H]2O)[C@@H](O)[C@@H]1O [Sucrose]
keeping IFN-beta in solution [1]: keep IFN-beta in solution

OCCO [Ethylene Glycol]
Successful (+)/ Unsuccessful (-) ([1]; reagent at 20%): -

CC(C)O [Isopropanol]
keeping IFN-beta in solution [1]: keep IFN-beta in solution | Successful (+)/ Unsuccessful (-) ([1]; reagent at 50%): +
